Species on record: Rattus norvegicus
Assay: Open TG-GATES - Regimen: Single
Type: toxicity, organism-based, Sprague-Dawley
Set-up: regimen Single, gender Male, age 6 weeks
Conditions: in vivo, po, route gavage; for APTT / Bas / Eos / Fbg / Hb / Ht / Lym / MCHC / MCV / Mono / Neu / PT / Plat / RBC / Ret / WBC: tissue Blood; for KIDNEY_L / KIDNEY_R / KIDNEY_TOTAL: tissue Kidney; for LIVER: tissue Liver; for ALP / ALT / AST / BUN / CRE / DBIL / GLC / IP / K / LDH / Na / PL / RALB / TBIL / TC / TG / TP / gamma-GTP: tissue Plasma
[1] = 1000 mg/kg, 3 h, dose level Middle
[2] = 1000 mg/kg, 6 h, dose level Middle
[3] = 1000 mg/kg, 9 h, dose level Middle
[4] = 1000 mg/kg, 24 h, dose level Middle
[5] = 2000 mg/kg, 3 h, dose level High
[6] = 2000 mg/kg, 6 h, dose level High
[7] = 2000 mg/kg, 9 h, dose level High
[8] = 2000 mg/kg, 24 h, dose level High

C#C[C@]1(O)CC[C@H]2[C@@H]3CCC4=Cc5oncc5C[C@]4(C)[C@H]3CC[C@@]21C [DANAZOL]
TERMINAL_BW [1]: 216 g
APTT [1]: 22.9 s
Bas [1]: 0%
Eos [1]: 1%
Fbg [1]: 300.8 mg/dL
Hb [1]: 13.5 g/dL
Ht [1]: 40.7%
Lym [1]: 79.2%
MCHC [1]: 33.1%
MCV [1]: 63.8 fL
Mono [1]: 2.4%
Neu [1]: 16.2%
PT [1]: 15.7 s
Plat [1]: 103.2 x10_4/uL
RBC [1]: 638.4 x10_4/ul
Ret [1]: 7.1%
WBC [1]: 83.8 x10_2/uL
KIDNEY_L [1]: 0.9 g
KIDNEY_R [1]: 0.9 g
KIDNEY_TOTAL [1]: 1.8 g
LIVER [1]: 9.6 g
ALP [1]: 1405.8 IU/L
ALT [1]: 41.8 IU/L
AST [1]: 78 IU/L
BUN [1]: 14 mg/dL
CRE [1]: 0.2 mg/dL
DBIL [1]: 0.002 mg/dL
GLC [1]: 178.6 mg/dL
IP [1]: 7.6 mg/dL
K [1]: 4.1 meq/L
LDH [1]: 128 IU/L
Na [1]: 142.4 meq/L
PL [1]: 129 mg/dL
RALB [1]: 3 g/dL
TBIL [1]: 0.022 mg/dL
TC [1]: 66.6 mg/dL
TG [1]: 73.4 mg/dL
TP [1]: 5.5 g/dL
gamma-GTP [1]: 1.8 IU/L
TERMINAL_BW [2]: 216.7 g
APTT [2]: 22.9 s
Bas [2]: 0%
Eos [2]: 1%
Fbg [2]: 306.4 mg/dL
Hb [2]: 13 g/dL
Ht [2]: 39.6%
Lym [2]: 74.2%
MCHC [2]: 32.8%
MCV [2]: 62.6 fL
Mono [2]: 3%
Neu [2]: 21%
PT [2]: 16.4 s
Plat [2]: 107.1 x10_4/uL
RBC [2]: 633.6 x10_4/ul
Ret [2]: 7.6%
WBC [2]: 97.7 x10_2/uL
KIDNEY_L [2]: 0.9 g
KIDNEY_R [2]: 1 g
KIDNEY_TOTAL [2]: 1.9 g
LIVER [2]: 9.5 g
ALP [2]: 1279 IU/L
ALT [2]: 34.4 IU/L
AST [2]: 70.8 IU/L
BUN [2]: 10.2 mg/dL
CRE [2]: 0.1 mg/dL
DBIL [2]: 0.002 mg/dL
GLC [2]: 181.8 mg/dL
IP [2]: 9.3 mg/dL
K [2]: 4.2 meq/L
LDH [2]: 139.8 IU/L
Na [2]: 141.4 meq/L
PL [2]: 131.6 mg/dL
RALB [2]: 3 g/dL
TBIL [2]: 0.026 mg/dL
TC [2]: 67 mg/dL
TG [2]: 60.4 mg/dL
TP [2]: 5.4 g/dL
gamma-GTP [2]: 1.4 IU/L
TERMINAL_BW [3]: 208.1 g
APTT [3]: 21.9 s
Bas [3]: 0%
Eos [3]: 0.6%
Fbg [3]: 302.4 mg/dL
Hb [3]: 12.9 g/dL
Ht [3]: 39.7%
Lym [3]: 77.8%
MCHC [3]: 32.6%
MCV [3]: 62.9 fL
Mono [3]: 2.2%
Neu [3]: 18.6%
PT [3]: 16.7 s
Plat [3]: 114.4 x10_4/uL
RBC [3]: 630.2 x10_4/ul
Ret [3]: 7.3%
WBC [3]: 82.7 x10_2/uL
KIDNEY_L [3]: 0.9 g
KIDNEY_R [3]: 1 g
KIDNEY_TOTAL [3]: 1.9 g
LIVER [3]: 8.6 g
ALP [3]: 1309.4 IU/L
ALT [3]: 33.6 IU/L
AST [3]: 66.8 IU/L
BUN [3]: 9.6 mg/dL
CRE [3]: 0.1 mg/dL
DBIL [3]: 0.014 mg/dL
GLC [3]: 178.8 mg/dL
IP [3]: 9.4 mg/dL
K [3]: 4.2 meq/L
LDH [3]: 139 IU/L
Na [3]: 141.4 meq/L
PL [3]: 109 mg/dL
RALB [3]: 3 g/dL
TBIL [3]: 0.038 mg/dL
TC [3]: 54.4 mg/dL
TG [3]: 53 mg/dL
TP [3]: 5.4 g/dL
gamma-GTP [3]: 1.6 IU/L
TERMINAL_BW [4]: 216 g
APTT [4]: 23.2 s
Bas [4]: 0%
Eos [4]: 1%
Fbg [4]: 290 mg/dL
Hb [4]: 13.6 g/dL
Ht [4]: 41%
Lym [4]: 81.5%
MCHC [4]: 33.2%
MCV [4]: 62.3 fL
Mono [4]: 2.8%
Neu [4]: 13.5%
PT [4]: 17.8 s
Plat [4]: 107.7 x10_4/uL
RBC [4]: 658.6 x10_4/ul
Ret [4]: 6.6%
WBC [4]: 73 x10_2/uL
KIDNEY_L [4]: 1 g
KIDNEY_R [4]: 1 g
KIDNEY_TOTAL [4]: 2 g
LIVER [4]: 10.5 g
ALP [4]: 1988.8 IU/L
ALT [4]: 42.4 IU/L
AST [4]: 72.2 IU/L
BUN [4]: 13.8 mg/dL
CRE [4]: 0.1 mg/dL
DBIL [4]: 0 mg/dL
GLC [4]: 184.6 mg/dL
IP [4]: 6.5 mg/dL
K [4]: 4.5 meq/L
LDH [4]: 186 IU/L
Na [4]: 141 meq/L
PL [4]: 123 mg/dL
RALB [4]: 3.1 g/dL
TBIL [4]: 0.002 mg/dL
TC [4]: 45.8 mg/dL
TG [4]: 233.4 mg/dL
TP [4]: 5.5 g/dL
gamma-GTP [4]: 1.2 IU/L
TERMINAL_BW [5]: 217 g
APTT [5]: 22.7 s
Bas [5]: 0%
Eos [5]: 1%
Fbg [5]: 312.2 mg/dL
Hb [5]: 13.3 g/dL
Ht [5]: 40.5%
Lym [5]: 77.2%
MCHC [5]: 33%
MCV [5]: 62.8 fL
Mono [5]: 3.2%
Neu [5]: 18.2%
PT [5]: 15.5 s
Plat [5]: 120.2 x10_4/uL
RBC [5]: 644 x10_4/ul
Ret [5]: 7.3%
WBC [5]: 73.3 x10_2/uL
KIDNEY_L [5]: 1 g
KIDNEY_R [5]: 1 g
KIDNEY_TOTAL [5]: 2 g
LIVER [5]: 9.7 g
ALP [5]: 1466 IU/L
ALT [5]: 45 IU/L
AST [5]: 78 IU/L
BUN [5]: 13.6 mg/dL
CRE [5]: 0.1 mg/dL
DBIL [5]: 0 mg/dL
GLC [5]: 178.2 mg/dL
IP [5]: 8.5 mg/dL
K [5]: 4.4 meq/L
LDH [5]: 162 IU/L
Na [5]: 141 meq/L
PL [5]: 138.4 mg/dL
RALB [5]: 3.1 g/dL
TBIL [5]: 0.02 mg/dL
TC [5]: 68.2 mg/dL
TG [5]: 99.2 mg/dL
TP [5]: 5.4 g/dL
gamma-GTP [5]: 1.8 IU/L
TERMINAL_BW [6]: 217.1 g
APTT [6]: 23.2 s
Bas [6]: 0%
Eos [6]: 1%
Fbg [6]: 282.6 mg/dL
Hb [6]: 12.6 g/dL
Ht [6]: 39%
Lym [6]: 75.4%
MCHC [6]: 32.3%
MCV [6]: 63.5 fL
Mono [6]: 2.8%
Neu [6]: 20.6%
PT [6]: 16.5 s
Plat [6]: 113.2 x10_4/uL
RBC [6]: 613 x10_4/ul
Ret [6]: 8.1%
WBC [6]: 86.2 x10_2/uL
KIDNEY_L [6]: 1 g
KIDNEY_R [6]: 1 g
KIDNEY_TOTAL [6]: 2 g
LIVER [6]: 9.6 g
ALP [6]: 1348.6 IU/L
ALT [6]: 34.8 IU/L
AST [6]: 69 IU/L
BUN [6]: 12.2 mg/dL
CRE [6]: 0.1 mg/dL
DBIL [6]: 0 mg/dL
GLC [6]: 178 mg/dL
IP [6]: 8.5 mg/dL
K [6]: 4.5 meq/L
LDH [6]: 159.6 IU/L
Na [6]: 140.4 meq/L
PL [6]: 122.4 mg/dL
RALB [6]: 2.9 g/dL
TBIL [6]: 0.028 mg/dL
TC [6]: 57.6 mg/dL
TG [6]: 71.6 mg/dL
TP [6]: 5.3 g/dL
gamma-GTP [6]: 1.8 IU/L
TERMINAL_BW [7]: 216.8 g
APTT [7]: 23.7 s
Bas [7]: 0%
Eos [7]: 0.8%
Fbg [7]: 276.2 mg/dL
Hb [7]: 12.7 g/dL
Ht [7]: 39.3%
Lym [7]: 74.6%
MCHC [7]: 32.3%
MCV [7]: 63.9 fL
Mono [7]: 2.8%
Neu [7]: 20.8%
PT [7]: 16.9 s
Plat [7]: 110.6 x10_4/uL
RBC [7]: 615.4 x10_4/ul
Ret [7]: 7.2%
WBC [7]: 77.3 x10_2/uL
KIDNEY_L [7]: 1 g
KIDNEY_R [7]: 1 g
KIDNEY_TOTAL [7]: 2 g
LIVER [7]: 9.1 g
ALP [7]: 1416.2 IU/L
ALT [7]: 31.6 IU/L
AST [7]: 73.8 IU/L
BUN [7]: 11.6 mg/dL
CRE [7]: 0.2 mg/dL
DBIL [7]: 0.004 mg/dL
GLC [7]: 180.8 mg/dL
IP [7]: 9.2 mg/dL
K [7]: 4.2 meq/L
LDH [7]: 128 IU/L
Na [7]: 141.2 meq/L
PL [7]: 110.8 mg/dL
RALB [7]: 2.9 g/dL
TBIL [7]: 0.032 mg/dL
TC [7]: 47.2 mg/dL
TG [7]: 99.4 mg/dL
TP [7]: 5.2 g/dL
gamma-GTP [7]: 1.4 IU/L
TERMINAL_BW [8]: 217.9 g
APTT [8]: 24.3 s
Bas [8]: 0%
Eos [8]: 1%
Fbg [8]: 286.4 mg/dL
Hb [8]: 13.3 g/dL
Ht [8]: 39.8%
Lym [8]: 74.8%
MCHC [8]: 33.4%
MCV [8]: 62.7 fL
Mono [8]: 2.4%
Neu [8]: 21.4%
PT [8]: 18.6 s
Plat [8]: 127.2 x10_4/uL
RBC [8]: 635.8 x10_4/ul
Ret [8]: 7.2%
WBC [8]: 84.4 x10_2/uL
KIDNEY_L [8]: 1 g
KIDNEY_R [8]: 1 g
KIDNEY_TOTAL [8]: 2 g
LIVER [8]: 10.5 g
ALP [8]: 1879.4 IU/L
ALT [8]: 44.4 IU/L
AST [8]: 76.8 IU/L
BUN [8]: 12.2 mg/dL
CRE [8]: 0.1 mg/dL
DBIL [8]: 0 mg/dL
GLC [8]: 186 mg/dL
IP [8]: 6.9 mg/dL
K [8]: 4.3 meq/L
LDH [8]: 219.6 IU/L
Na [8]: 141.6 meq/L
PL [8]: 121.2 mg/dL
RALB [8]: 3.1 g/dL
TBIL [8]: 0 mg/dL
TC [8]: 44.6 mg/dL
TG [8]: 266.6 mg/dL
TP [8]: 5.6 g/dL
gamma-GTP [8]: 1.2 IU/L

Source: ChEMBL document CHEMBL3885861, “Open TG-GATES”
